Measurements taken from patent US12239643B2, “Therapeutic agent for inflammatory diseases, autoimmune diseases, fibrotic diseases, and cancer diseases” (MEIJI SEIKA PHARMA CO., LTD., priority 2018, dated 2025).
Where two headings read alike, the source gives them in different places.

Tested on: PDE4
Assay: Evaluation of PDE4 inhibitory activity, scintillation proximity assay
Format: biochemical
Details: scintillation proximity assay
Experimental: The BDE4 inhibitory activity was measured using scintillation proximity assay (SPA) as follows. First, a test compound dissolved in dimethyl sulfoxide was diluted 1:10 in reaction buffer solution which contained 50 mM of Tris-HCl with pH 7.4, 8.3 mM of MgCl2, 1.7 mM of EGTA, and 3 mg/mL of bovine serum albumin (BSA). Then, 10 μL of the diluted solution was added in a 96-well assay plate. Moreover, 50 μL of PDE4 (enzyme preparation) diluted 1:375 in the reaction buffer solution was added, and then 40 μL of [2,8-^3H]-adenosine-3′,5′-cyclic phosphate triethylammonium salt diluted 1:1000 in the reaction buffer solution was added. The mixture was allowed to stand at room temperature for 120 minutes. Thereafter, […] of RNA binding YSi-SPA beads suspension containing ZnSO4 was added and the mixture was allowed to stand at room temperature for 15 minutes, followed by adsorption of the enzyme reaction product to the beads. After that, the radioactivity was measured using a liquid scintillation counter for a 96-well plate. The mixture without the enzyme preparation added but only the reaction buffer solution added is a blank, and the mixture with the enzyme preparation added and only dimethyl sulfoxide added instead of the test compound is a control.
In addition, the PDE4 inhibitory activity (concentration that inhibits PDE4 activity by 50%=concentration for the inhibition rate of 50% (IC50)) of the test compound was calculated from the inhibition curves based on the inhibition rates for various concentrations of the test compound.

[1] = class symbols of Evaluation 1, read-out: PDE4 Inhibitory Activity (concentration for the inhibition rate of 50%, IC50), Evaluation 1
[2] = read-out: PDE4 Inhibitory Activity (Evaluation 1; concentration for the inhibition rate of 50%)

Row | Structure (SMILES) | IC50 [1] [µM] | IC50 [2] [µM]
1 | CC(C)(O)c1cc(-c2nccs2)c2oc(N3CC4CC(C3)N4)nc2c1C(F)(F)F [Example 178, 2-(2-(3,6-Diazabicyclo[3.1.1]heptan-3-yl)-7-(thiazol-2-yl)-4-(trifluoromethyl)benzo[d]oxazol-5-yl)propan-2-ol] | < 0.1 | 
2 | C[S+]([O-])c1cc(-c2nccs2)c2oc(N3CC4CCC(C3)N4)nc2c1 (centres unmarked) [Example 42, 2-(3,8-Diazabicyclo[3.2.1]octan-3-yl)-5-(methylsulfinyl)-7-(thiazol-2-yl)benzo[d]oxazole] | < 0.1 | 
3 | CC(C)(O)C(F)(F)Oc1ccc(-c2cscn2)c2oc(N3CC4CCC(C3)N4)nc12 [Example 308, 1-((2-(3,8-Diazabicyclo[3.2.1]octan-3-yl)-7-(thiazol-4-yl)benzo[d]oxazol-4-yl)oxy)-1,1-difluoro-2-methylpropan-2-ol] |  | < 0.1
4 | OC1(c2cc(-c3cscn3)c3oc(N4CC5CC(C4)N5)nc3c2OC(F)(F)F)CC1 [Example 299, 1-(2-(3,6-Diazabicyclo[3.1.1]heptan-3-yl)-7-(thiazol-4-yl)-4-(trifluoromethoxy)benzo[d]oxazol-5-yl)cyclopropan-1-ol] |  | < 0.1
5 | CC(C)(O)c1ccc(-c2nccs2)c2oc(N3CC4CCC(C3)N4)nc12 [Example 247, 2-(2-(3,8-Diazabicyclo[3.2.1]octan-3-yl)-7-(thiazol-2-yl)benzo[d]oxazol-4-yl)propan-2-ol] |  | < 0.1
6 | CCOC(=O)c1ccc(-c2nccs2)c2oc(N3CC4CCCC(C3)N4)nc12 [Example 114, Ethyl 2-(3,9-diazabicyclo[3.3.1]nonan-3-yl)-7-(thiazol-2-yl)benzo[d]oxazole-4-carboxylate] | < 0.1 | 
7 | CCOC(=O)c1cc(-c2nccs2)c2oc(N3CC4CC(C3)N4)nc2c1C(F)(F)F [Example 165, Ethyl 2-(3,6-diazabicyclo[3.1.1]heptan-3-yl)-7-(thiazol-2-yl)-4-(trifluoromethyl)benzo[d]oxazole-5-carboxylate] | < 0.1 | 
8 | OC(c1cc(-c2cscn2)c2oc(N3CC4CCC(C3)N4)nc2c1OC(F)(F)F)C(F)F (centres unmarked) [Example 303, 1-(2-(3,8-Diazabicyclo[3.2.1]octan-3-yl)-7-(thiazol-4-yl)-4-(trifluoromethoxy)benzo[d]oxazol-5-yl)-2,2-difluoroethan-1-ol] |  | < 0.1
9 | COCC(O)COc1ccc(-c2nccs2)c2oc(N3CC4CCC(C3)N4)nc12 (centres unmarked) [Example 83, 1-((2-(3,8-Diazabicyclo[3.2.1]octan-3-yl)-7-(thiazol-2-yl)benzo[d]oxazol-4-yl)oxy)-3-methoxypropan-2-ol] | < 0.1 | 
10 | OC(c1cc(-n2cccn2)c2oc(N3CC4CCC(C3)N4)nc2c1)C(F)(F)F (centres unmarked) [Example 140, 1-(2-(3,8-Diazabicyclo[3.2.1]octan-3-yl)-7-(1H-pyrazol-1-yl)benzo[d]oxazol-5-yl)-2,2,2-trifluoroethan-1-ol] | < 0.1 | 
11 | CC(C)(O)C(F)(F)Oc1ccc(-c2cscn2)c2oc(N3CC4CC(C3)N4)nc12 [Example 307, 1-((2-(3,6-Diazabicyclo[3.1.1]heptan-3-yl)-7-(thiazol-4-yl)benzo[d]oxazol-4-yl)oxy)-1,1-difluoro-2-methylpropan-2-ol] |  | < 0.1
12 | OC(c1ccc(-c2nccs2)c2oc(N3CC4CCC(C3)N4)nc12)C(F)F (centres unmarked) [Example 128, 1-(2-(3,8-Diazabicyclo[3.2.1]octan-3-yl)-7-(thiazol-2-yl)benzo[d]oxazol-4-yl)-2,2-difluoroethan-1-ol] | < 0.1 | 
13 | CC(O)(c1cc(-c2nccs2)c2oc(N3CC4CCC(C3)N4)nc2c1)C(F)(F)F (centres unmarked) [Example 159, 2-(2-(3,8-Diazabicyclo[3.2.1]octan-3-yl)-7-(thiazol-2-yl)benzo[d]oxazol-5-yl)-1,1,1-trifluoropropan-2-ol] | < 0.1 | 
14 | CC(O)C(F)(F)Oc1ccc(-c2nccs2)c2oc(N3CC4CC(C3)N4)nc12 (racemic) [Example 250, 1-((2-(3,6-Diazabicyclo[3.1.1]heptan-3-yl)-7-(thiazol-2-yl)benzo[d]oxazol-4-yl)oxy)-1,1-difluoropropan-2-ol] |  | < 0.1
